The values that follow are results of earlier work, collected in US20210290432A1, “KIT FOR PRODUCING KERATOCONJUNCTIVAL COVER SHEET AND METHOD FOR PRODUCING KERATOCONJUNCTIVAL COVER SHEET” (OSAKA UNIVERSITY, priority 2016, published 2021).

With `O=C(NC(Cc1cc(=O)[nH]c2ccccc12)C(=O)O)c1ccc(Cl)cc1` (stereo not shown) [Rebamipide, rebamipide], the solubility in water result was “poorly soluble in water”.
